Data reported in patent US6410576B1, “Thiazolidine derivatives” (Santen Pharmaceutical Co., Ltd., priority 1998, dated 2002).
Counter-ions that a name gives are not always drawn.

Legend:
[1] = target: T1, chymase extracted from a dog cardiac tissue (Canis lupus familiaris, UniProt P21842); test: Chymase inhibitory effect (liberation of His-Leu from angiotensin I, fluorescence intensity); assay type: biochemical; settings: angiotensin I substrate, 37° C. for one hour, pH 8 reaction buffer; read-out: IC50 (concentration required to inhibit the chymase enzymatic activity by 50%)
T1 construct: a heart is enucleated, and left ventricle is separated; from tissue; host or cells: beagle heart, left ventricle
T1 sequence (P21842 22-249): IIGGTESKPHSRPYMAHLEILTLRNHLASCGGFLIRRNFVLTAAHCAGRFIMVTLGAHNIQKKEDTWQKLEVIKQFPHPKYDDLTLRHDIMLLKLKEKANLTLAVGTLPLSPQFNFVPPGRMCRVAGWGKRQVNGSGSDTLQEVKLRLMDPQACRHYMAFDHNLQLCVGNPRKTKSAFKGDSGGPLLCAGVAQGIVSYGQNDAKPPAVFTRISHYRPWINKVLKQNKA
From the text: Chymase (enzyme) causes angiotensin I (substrate) to liberate a dipeptide (His-Leu) by the enzyme reaction with the substrate. It was reported that an enzymatic activity of chymase can be measured by measuring fluorescence intensity of the resulting peptide (Biochem. Biophys. Res. Com., 149 (3) 1186 (1987)). Since drugs having chymase inhibitory activities suppress this liberation of the dipeptide, the chymase inhibitory activities of the drugs can be measured by measuring fluorescence intensity. In the present pharmacological test, chymase inhibitory effects of the present compounds were studied by using chymase extracted from a dog cardiac tissue (J. Biol. Chem., 265 (36), 22348 (1990)).
1. A beagle is killed by drawing blood under Nembutal anesthesia, a heart is enucleated, and left ventricle is separated.
2. This left ventricle is finely minced, and the tissue weight is measured.
3. A 0.02 M Tris-HCl buffer (pH 7.4) is added to the tissue in an amount of 10 times by volume the tissue weight. This mixture is homogenized at 8,000 rpm for 20 seconds and then centrifuged at 4° C. and 21,000 rpm for 30 minutes, and the resulting supernatant is discarded.
(§1) 4. The same procedure as the above 3 is repeated twice for the residue. Then, a 0.02 M Tris-HCl buffer (pH 7.4) containing 1% Triton X-100 and 0.01 M potassium chloride is added to the residue in an amount of 10 times by volume the amount of the residue. This mixture is homogenized at 8,000 rpm for 20 seconds, then incubated at 4° C. for one hour and centrifuged at 21,000 rpm for 30 minutes, and the supernatant is discarded.
as §1, with “5. A” for “4. The same procedure as the above 3 is repeated twice for the residue. Then, a”, “0.5” for “0.01”
6. A 0.02 M Tris-HCl buffer (pH 7.4) containing 1% Triton X-100 and 2.0 M potassium chloride is added to the residue in an amount of 10 times the amount of the residue. This mixture is homogenized at 8,000 rpm for 20 seconds, then incubated at 4° C. for one hour and centrifuged at 21,000 rpm for 30 minutes. The obtained supernatant is used as a chymase enzyme solution.
Tris-HCl and disodium ethylenediaminetetraacetate are dissolved in water so that their concentrations are 92.3 mM and 12.0 mM respectively to prepare a reaction buffer adjusted to pH 8.
Angiotensin I is dissolved in water to prepare a 1.54 mM substrate solution.
A test compound is dissolved in dimethyl sulfoxide to prepare 3.0×10^−3 M, 3.0×10^−4 M, 3.0×10^−5 M and 3.0×10^−6 M test com solutions.
1. The reaction buffer (32.5 μl), the substrate solution (75.0 μl), the chymase enzyme solution (37.5 μl) and the test compound solution (5 μl) are mixed.
2. The obtained mixture is incubated at 37° C. for one hour.
3. To the mixture is added 15% trichloroacetic acid (225 μl), and the whole is centrifuged at 4° C. and 14,000 rpm for five minutes.
4. The supernatant is taken out. A 1% orthophthalaldehyde/methanol solution (165 μl) is added to 300 μl of this supernatant, and the whole is stirred and allowed to stand at room temperature for 10 minutes.
5. 1.5 M Hydrochloric acid (300 μl) is added to the resulting mixture, and the whole is stirred and centrifuged at 4° C. and 14,000 rpm for two minutes.
6. The supernatant is taken out and irradiated with light having a wavelength of 340 nm, and fluorescence intensity is measured at a wavelength of 455 nm.
The blank of this test is defined as follows. The same procedures as in the above 1 to 6 are repeated provided that a 20 mM Tris-HCl buffer (pH 7.4, 37.5 μl) containing 1% Triton X-100 and 2.0 M potassium chloride is used instead of the chymase enzyme solution (37.5 μl), and dimethyl sulfoxide (5 μl) is used instead of the test compound solution (5 μl) in the above 1. The obtained […] is the blank value. […]

## CC(C)OC(=O)C(=O)[C@H](Cc1ccccc1)NC(=O)[C@@H]1CSC(c2ccccc2)N1C(=O)[C@@H](NC(=O)N(C)CCN)C(C)C (mixture of isomers) (as salt: hydrochloride) [Compound No. 6-2, Isopropyl (3S)-3-[(2RS,4R)-3-[(2S)-2-[[N-(2-aminoethyl)-N-methylamino]carbonyl]amino]-3-methyl-1-oxobutyl]-2-phenyl-1,3-thiazolidin-4-ylcarboxamidol-2-oxo-4-phenylbutyrate hydrochloride]
other
  melting point: 90 °C

## CC(C)OC(=O)C(=O)[C@H](Cc1ccccc1)NC(=O)[C@@H]1CSC(c2ccccc2)N1C(=O)[C@@H](NC(=O)N(C)CCN)C(C)C (mixture of isomers) [Compound No. 6-2, Isopropyl (3S)-3-[(2RS,4R)-3-[(2S)-2-[[N-(2-aminoethyl)-N-methylamino]carbonyl]amino]-3-methyl-1-oxobutyl]-2-phenyl-1,3-thiazolidin-4-ylcarboxamidol-2-oxo-4-phenylbutyrate hydrochloride]
[1]
  IC50: 57 nM

## CC(C)OC(=O)C(=O)[C@H](Cc1ccccc1)NC(=O)[C@@H]1CSCN1C(=O)[C@@H](NC(=O)OCc1ccccc1)C(C)C [Compound No. 2-1, Isopropyl (3S)-3-[(4R)-3-[(2S)-3-methyl-1-oxo-2-[[(phenylmethoxy)carbonyl]amino]butyl]-1,3-thiazolidin-4-ylcarboxamido]-2-oxo-4-phenylbutyrate]
[1]
  IC50: 47 nM

## COCC(=O)N[C@H](C(=O)N1CSC[C@H]1C(=O)N[C@@H](Cc1ccccc1)C(=O)C(=O)OC(C)C)C(C)C [Compound No. 2-19, Isopropyl (3S)-3-[(4R)-3-[(2S)-2-[(methoxymethyl)carbonyl]amino-3-methyl-1-oxobutyl]-1,3-thiazolidin-4-ylcarboxamido]-2-oxo-4-phenylbutyrate]
[1]
  IC50: 56 nM

## CC(C)OC(=O)C(=O)[C@H](Cc1ccccc1)NC(=O)[C@@H]1CSCN1C(=O)[C@@H](NC(=O)COc1ccccc1)C(C)C [Compound No. 2-20, Isopropyl (3S)-3-[(4R)-3-[(2S)-3-methyl-1-oxo-2-[[(phenoxylmethyl)carbonyl]amino]butyl]-1,3-thiazolidin-4-ylcarboxamido]-2-oxo-4-phenylbutyrate]
[1]
  IC50: 44 nM

## CC(C)OC(=O)C(=O)[C@H](Cc1ccccc1)NC(=O)[C@@H]1CSCN1C(=O)[C@@H](NC(=O)OC(C)(C)C)C(C)C [Compound No. 2-21, Isopropyl (3S)-3-[(4R)-3-[(2S)-2-(tert-butoxycarbonyl)amino-3-methyl-1-oxobutyl]-1,3-thiazolidin-4-ylcarboxamido]-2-oxo-4-phenylbutyrate]
[1]
  IC50: 26 nM

## CC(C)OC(=O)C(=O)[C@H](Cc1ccccc1)NC(=O)[C@@H]1CSCN1C(=O)[C@@H](NC(=O)N(C)Cc1ccccc1)C(C)C [Compound No. 2-25, Isopropyl (3S)-3-[(4R)-3-[(2S)-3-methyl-2-[[N-methyl-N-(phenylmethyl)amino]carbonyl]amino-1-oxobutyl]-1,3-thiazolidin-4-ylcarboxamido]-2-oxo-4-phenylbutyrate]
[1]
  IC50: 31 nM

## CC(C)OC(=O)C(=O)[C@H](Cc1ccccc1)NC(=O)[C@@H]1CSCN1C(=O)[C@@H](NC(=O)N(C)CCNC(=O)OC(C)(C)C)C(C)C [Compound No. 2-26, Isopropyl (3S)-3-[(4R)-3-[(2S)-2-[[N-[2-[(tert-butoxycarbonyl)amino]ethyl]-N-methylamino]carbonyl]amino-3-methyl-1-oxobutyl]-1,3-thiazolidin-4-ylcarboxamido]-2-oxo-4-phenylbutyrate]
[1]
  IC50: 12 nM

## CC(C)[C@H](NC(=O)OCc1ccccc1)C(=O)N1CSC[C@H]1C(=O)N[C@@H](Cc1ccccc1)C(=O)C(=O)OCc1ccccc1 [Compound No. 2-37, Phenylmethyl (3S)-3-[(4R)-3-[(2S)-3-methyl-1-oxo-2-[[(phenylmethoxy)carbonyl]amino]butyl]-1,3-thiazolidin-4-ylcarboxamido]-2-oxo-4-phenylbutyrate]
[1]
  IC50: 66 nM
